Data as given in PMC4293695 (Bioorganic & medicinal chemistry letters, 2014).

What was measured:
[1] = cited from earlier work
[2] = biological target: PCP site of the NMDA receptor; type: binding; details: read-out: [3H]TCP Ki; [3H]TCP as radioligand; rat brain membrane suspensions; mean from two experiments

SMILES | measured logD [1] | Ki [2] [nM]
CN(C(=N)Nc1cccc2ccccc12)c1cccc(I)c1 [Ligand 1] | 2.19 | 
CN(C(=N)Nc1cccc2ccccc12)c1cccc(Cl)c1F [Ligand 34] |  | 701
